Source: US20120328602A1, “COMPOSITIONS AND METHODS FOR TREATING CONDITIONS ASSOCIATED WITH CERAMIDE BIOSYNTHESIS” (priority 2007, published 2012)
Read-outs that look alike come from different tables or passages of the source.

Experiments:
mice [1] = assay: hot plate, morphine-induced antinociceptive tolerance (Examples 3-5); format: in vivo, Male CD-1 mice; conditions: for development of tolerance, dose-dependence: co-administered with morphine, FB1 0.1-1 mg/kg/d, myriocin 0.1-0.4 mg/kg/d, D609 10-40 mg/kg/d; for development of tolerance, dose-dependence / hot plate latencies following s.c. saline / difference in responses to acute morphine (0.3-3 mg/kg), drug vs vehicle: n=10; for hot plate latencies following s.c. saline: day five, highest dose of drug, no morphine; for difference in responses to acute morphine (0.3-3 mg/kg), drug vs vehicle: highest dose over five days: FB1 1 mg/kg/d, myriocin 0.4 mg/kg/d, D609 40 mg/kg/d; for antinociceptive effects when tested alone: highest dose; for % MPE: tolerant mice, single i.p. dose fifteen minutes before acute morphine 3 mg/kg: FB1 1 mg/kg, myriocin 0.4 mg/kg, D609 40 mg/kg, n=6
Description: Nociceptive thresholds were determined by measuring latencies (in seconds) of mice placed in a transparent glass cylinder on a hot plate (Ugo Basile, Italy) maintained at 52° C. Determination of antinociception was assessed between 7 and 10:00 A.M. All injections were given intra-peritoneally (i.p.) or subcutaneously (s.c.) in a volume of 0.1 and 0.3 ml, respectively, at approximately 7 A.M. and 4 P.M. Responses indicative of nociception included intermittent lifting and/or licking of the hindpaws or escape behavior. […] Results were expressed as percentage of maximum possible antinociceptive effect, which was calculated as follows: (response latency−baseline latency)/(cut-off latency−baseline latency)×100. A cut-off latency of twenty seconds was employed to prevent tissue damage. Ten mice per group were used and all experiments were conducted with the experimentors blinded to treatment conditions. […] The following experimental groups were used: […]
Vehicle (V) Group: In this group, mice were injected twice per day for four days with an i.p, injection of saline and a s.c. injection of saline.

ceramide = assay: immunohistochemistry for ceramide in spinal cord (Example 3); conditions: co-administered with morphine; FB1 1 mg/kg/d, myriocin 0.4 mg/kg/d, D609 40 mg/kg/d
[2] = target: T1, acid sphingomyelinase (ASMase) (Mus musculus, UniProt Q04519); assay: sphingomyelinase activity in spinal cord tissues, acid isoforms (Amplex Red kit); format: in vivo, mice; conditions: D609 40 mg/kg/d co-administered with morphine
T1 construct: spinal cord tissues were homogenized in buffers for each specific assay; from tissue; host or cells: mouse spinal cord homogenate (Na acetate pH 5.0 lysis buffer)
T1 sequence (Q04519 45-627): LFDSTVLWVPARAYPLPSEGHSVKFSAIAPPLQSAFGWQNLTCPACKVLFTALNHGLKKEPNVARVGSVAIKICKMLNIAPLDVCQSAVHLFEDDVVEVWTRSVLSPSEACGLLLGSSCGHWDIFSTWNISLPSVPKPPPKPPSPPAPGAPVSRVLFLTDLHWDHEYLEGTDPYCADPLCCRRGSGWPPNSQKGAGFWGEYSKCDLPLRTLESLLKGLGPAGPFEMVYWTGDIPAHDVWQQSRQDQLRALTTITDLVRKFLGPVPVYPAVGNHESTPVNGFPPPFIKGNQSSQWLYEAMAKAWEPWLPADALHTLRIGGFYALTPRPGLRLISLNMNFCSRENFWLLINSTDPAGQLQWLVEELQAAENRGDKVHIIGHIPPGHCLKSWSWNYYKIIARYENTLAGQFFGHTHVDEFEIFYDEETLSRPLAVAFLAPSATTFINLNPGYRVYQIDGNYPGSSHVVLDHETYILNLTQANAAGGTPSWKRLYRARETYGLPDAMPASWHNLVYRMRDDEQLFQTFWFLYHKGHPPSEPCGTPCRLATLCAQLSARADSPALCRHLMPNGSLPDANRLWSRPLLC
Description: Sphingomyelinase activity was measure using Amplex® Red Sphingomyelinase Assay Kit (Molecular Probes, Eugene, Oreg.) following manufacturer's instructions. […] For the acid isoforms, Na acetate (100 mM and pH 5.0) lysis buffer was used. 2 mM EDTA was added to the lysis buffer for detection of the insoluble isoform. For neutral isoform detection, the tissues were homogenized in Hepes (20 mM, pH 7.4) lysis buffer. The kinetics for sphingomyelinase activity was measured in a fluorescence microplate reader for two hours followed by normalization per protein concentration of the sample. Hydrogen peroxide and sphingomyelinase were used as positive controls.

mice [3] = assay: Rotarod motor function test; format: in vivo; conditions: myriocin 0.4 mg/kg, FB1 1 mg/kg, D609 40 mg/kg; fifteen, thirty, and sixty minutes after administration; n=4; vs vehicle
Description: Mice were trained before experimentation for their ability to remain for one-hundred twenty seconds on a revolving Rotarod apparatus (accelerating units increase from 3.5 to 35 rpm in five minutes). Mice (n=4 per group) were injected with an i.p. injection of the highest dose of FB1 (1 mg/kg), myriocin (0.4 mg/kg), D609 (40 mg/kg) used to block antinociceptive tolerance or its vehicle. Mice (n=4 per group) were tested and examined for motor […] on the Rotarod at fifteen, thirty, and sixty minutes after drug administration as described in the method section. The latency time to fall off the Rotarod was determined. A cut-off time of one-hundred twenty seconds was used.

mice [4] = format: in vivo; conditions: for responses to acute morphine in control groups vs control groups treated with drug: no repeated morphine; for development of antinociceptive tolerance: co-administration with morphine, i.p., FB1 1 mg/kg, myriocin 0.2 mg/kg, D609 40 mg/kg; for antinociceptive effects when tested alone: drug alone (not shown)
neutral SMase = conditions: at 5 mM GSH; cited from earlier work
acid SMase = target: T2, acid SMase (Homo sapiens, UniProt P17405); conditions: at 30 μM; cited from earlier work
T2 sequence (P17405 47-631): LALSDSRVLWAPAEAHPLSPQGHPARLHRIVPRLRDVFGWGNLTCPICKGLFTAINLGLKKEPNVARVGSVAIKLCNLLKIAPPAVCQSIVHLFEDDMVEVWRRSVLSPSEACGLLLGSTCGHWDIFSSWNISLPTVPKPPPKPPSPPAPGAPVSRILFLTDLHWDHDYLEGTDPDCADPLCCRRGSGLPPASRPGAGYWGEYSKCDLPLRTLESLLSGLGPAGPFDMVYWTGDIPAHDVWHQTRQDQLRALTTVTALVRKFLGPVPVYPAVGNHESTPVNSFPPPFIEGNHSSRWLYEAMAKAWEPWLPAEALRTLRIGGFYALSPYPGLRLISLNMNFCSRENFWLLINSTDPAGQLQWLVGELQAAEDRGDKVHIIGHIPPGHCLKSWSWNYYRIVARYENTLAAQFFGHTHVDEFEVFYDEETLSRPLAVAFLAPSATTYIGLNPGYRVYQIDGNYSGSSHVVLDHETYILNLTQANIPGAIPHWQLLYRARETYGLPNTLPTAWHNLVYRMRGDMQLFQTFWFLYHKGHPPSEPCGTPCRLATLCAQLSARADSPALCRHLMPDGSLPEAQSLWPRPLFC

[5] = system: serine palmitoyl transferase (SPT); assay: serine palmitoyl transferase (SPT) activity; format: in vivo, mice; conditions: co-administration of morphine with myriocin 0.4 mg/kg/d, n=10
Description: SPT activity was determined by measuring the incorporation of [^3H] serine into 3-ketosphinganine following the method previously described (Williams et al., 1984). The results were normalized by the samples' protein concentration.

Row | Structure (SMILES) | development of tolerance, dose-dependence (mice [1]) | hot plate latencies following s.c. saline (mice [1]) | difference in responses to acute morphine (0.3-3 mg/kg), drug vs vehicle (mice [1]) | antinociceptive effects when tested alone (mice [1]) | % MPE (mice [1]) [%] | ceramide immunostaining (ceramide) | increased activity of ASMase [2] | Rotarod motor function deficits (mice [3]) | responses to acute morphine in control groups vs control groups treated with drug (mice [4]) | development of antinociceptive tolerance (mice [4]) | antinociceptive effects when tested alone (mice [4]) | inhibition of neutral SMase (neutral SMase) | inhibition of acid SMase (acid SMase) [%] | activation of SPT [5]
1 | S=C([S-])OC1CC2CC1C1CCCC21.[K+] (stereo not drawn) [D609, tricyclodecan-9-xanthogenate] | blocked in a dose-dependent manner | six and seven | statistically insignificant | none of FB1, myriocin, or D609 had antinociceptive effects | 11±2 | blocked | blocked the increased activity of ASMase | did not show signs of Rotarod deficits | similar | blocked antinociceptive tolerance | no antinociceptive effects |  |  | 
2 | N[C@@H](CCC(=O)N[C@@H](CS)C(=O)NCC(=O)O)C(=O)O [Glutathione] |  |  |  |  |  |  |  |  |  |  |  | greater than 95% |  | 
3 | COc1ccc(CCN(C)CCCOc2ccc(S(=O)(=O)c3c(C(C)C)cn4ccccc34)cc2)cc1OC [SR33557] |  |  |  |  |  |  |  |  |  |  |  |  | 72 | 
4 | CCCCCCC(=O)CCCCCC/C=C/C[C@@H](O)[C@H](O)[C@@](N)(CO)C(=O)O [myriocin] | blocked | six and seven | statistically insignificant | none of FB1, myriocin, or D609 had antinociceptive effects | 13±2 | blocked |  | did not show signs of Rotarod deficits | similar | blocked antinociceptive tolerance | no antinociceptive effects |  |  | blocked, as expected, the activation of SPT
